Assay results reported in publication PMC6350249 (The Journal of organic chemistry, 2016).

Tests used:
[1] = biological target: T1, CH1 domain of p300 and the C-TAD domain of HIF-1α (Homo sapiens, UniProt Q09472); test: HIF-1α/p300 assay, dose–response version of the screening assay; type: binding; settings: for inhibition of the protein–protein interaction: at 500 μM (high test concentration)
[2] = test system: chloroquine-sensitive (D6) strain of Plasmodium falciparum; test: Antimalarial inhibitory activity, chloroquine-sensitive; type: cell-based; settings: P. falciparum D6 strain
[3] = test system: chloroquine-resistant (W2) strain of Plasmodium falciparum; test: Antimalarial inhibitory activity, chloroquine-resistant; type: cell-based; settings: P. falciparum W2 strain
[4] = biological target: T1, CH1 domain of p300 and the C-TAD domain of HIF-1α; settings: earlier report; cited from earlier work

T1 sequence (Q09472 331-417 limits assumed): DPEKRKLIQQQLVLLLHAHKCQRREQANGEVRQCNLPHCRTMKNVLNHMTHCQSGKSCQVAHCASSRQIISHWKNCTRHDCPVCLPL

Row | Compound | inhibition of the protein–protein interaction [1] | antimalarial effect (in words) [2] | antimalarial effect (in words) [3] | IC50 [2] [µM] | IC50 [3] [µM] | inhibition of the protein–protein interaction between p300 and HIF-1α (in words) [4] | IC50 ([1]; HIF-1α/p300 assay) [µM]
1 | (+)-(R)-eudistidine C [1a] | 27% | significant antimalarial effects | significant antimalarial effects | – | – | – | –
2 | COc1ccc(C2(O)N=C3N=CC=C4c5ccccc5N=C2N43)cc1 (stereo not drawn) [compound 2, eudistidine A] | – | significant antimalarial effects | significant antimalarial effects | 1.4 | 1.1 | inhibited | –
3 | COc1ccc(C2(c3[nH]c(N)nc3-c3ccc(O)cc3)N=C3N=CC=C4c5ccccc5N=C2N43)cc1 (stereo not drawn) [compound 1, eudistidine C] | approximately 48% | – | – | – | – | – | –
4 | (−)-(S)-eudistidine C [1b] | – | significant antimalarial effects | significant antimalarial effects | – | – | – | 276
